Data published in patent US9394297B2, “Amides as pim inhibitors” (AMGEN INC., priority 2012, dated 2016).
Where two headings read alike, the source gives them in different places.

Tests used:
Pim-1 = Pim-1 (Homo sapiens (Human), UniProt P11309); assay: Pim-Mn enzyme assay (HTRF, 384-well), Pim-1; type: biochemical; conditions: read-out: Pim-1-Mn IC50 IP
KMS-12-BM cell lines = assay: KMS12 #2 flow cytometry assay (phospho-BAD Ser112); type: cell-based; conditions: Homo sapiens, KMS-12-BM, 110 min, read-out: KMS-12-Flow IC50 IP
Pim-2 = Pim-2 (Homo sapiens (Human), UniProt Q9P1W9); assay: Pim-Mn enzyme assay (HTRF, 384-well), Pim-2; type: biochemical; conditions: Pim-2 enzyme 0.5 pM, ATP 1.5 μM, BAD (S112) 0.5 μM, HTRF, 22-point curve; read-out: Pim-2-Mn IC50 IP
Sequence of Pim-2 (Q9P1W9 whole entry): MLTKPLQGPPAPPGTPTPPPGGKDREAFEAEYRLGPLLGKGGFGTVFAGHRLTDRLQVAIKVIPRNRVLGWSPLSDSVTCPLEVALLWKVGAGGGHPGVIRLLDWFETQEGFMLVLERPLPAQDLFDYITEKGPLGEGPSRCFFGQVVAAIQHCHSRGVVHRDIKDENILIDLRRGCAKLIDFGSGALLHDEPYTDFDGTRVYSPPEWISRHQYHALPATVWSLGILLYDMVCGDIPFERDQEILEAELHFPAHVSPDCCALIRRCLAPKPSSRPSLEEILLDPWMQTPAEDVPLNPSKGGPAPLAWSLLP

[1] = tested on: KMS-12-BM myeloma cell line; assay: Pim KMS-12 cell assay (phospho-BAD S112 / total BAD, MSD)
[2] = Pim-1 enzyme 5 pM, ATP 1.5 μM, BAD (S112) 0.5 μM, HTRF, 22-point curve
[3] = Homo sapiens, KMS-12-BM, read-out: KMS-12-BM IC50 IP
[4] = Homo sapiens, KMS-12-BM, read-out: KMS-12-BM IC50 IP, KMS-12-BM cells, phospho-BAD (S112) vs total BAD, 1 hour 50 min with compound
[5] = read-out: KMS-12-BM IC50 IP, KMS-12-BM cells, phospho-BAD (S112) vs total BAD, 1 hour 50 min with compound

Sequence of Pim-1 (P11309 whole entry): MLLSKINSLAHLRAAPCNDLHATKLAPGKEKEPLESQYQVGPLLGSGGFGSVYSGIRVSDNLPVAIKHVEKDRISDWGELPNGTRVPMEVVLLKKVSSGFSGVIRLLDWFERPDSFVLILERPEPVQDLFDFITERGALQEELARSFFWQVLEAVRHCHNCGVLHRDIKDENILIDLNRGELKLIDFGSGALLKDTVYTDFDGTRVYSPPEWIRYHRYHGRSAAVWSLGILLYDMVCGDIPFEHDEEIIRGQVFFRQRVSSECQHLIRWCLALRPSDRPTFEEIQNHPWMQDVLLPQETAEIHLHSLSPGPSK

Row | IC50 (Pim-1; [2]) | IC50 (Pim-2) | IC50 [1, 4] | IC50 [1, 5] | Molecule | IC50 (KMS-12-BM cell lines) | IC50 [1, 3] | IC50 (Pim-1)
1 | 8.1 nM | 27 nM | 6130 nM |  | Cc1nc2cccc(-c3cc4c([nH]3)CCNC4=O)c2nc1N[C@H]1CCCNC1 [Example 76, (S)-2-(2-methyl-3-(piperidin-3-ylamino)quinoxalin-5-yl)-6,7-dihydro-1H-pyrrolo[3,2-c]pyridin-4(5H)-one] |  |  | 
2 | 5.1 nM | 5.8 nM | 907 nM |  | Cc1nc2cccc(-c3cc4c(=O)[nH]cnc4[nH]3)c2nc1NC(C)(C)CO [Example 263, 6-(3-((1-hydroxy-2-methylpropan-2-yl)amino)-2-methylquinoxalin-5-yl)-3H-pyrrolo[2,3-d]pyrimidin-4(7H)-one] |  |  | 
3 | 1.2 nM | 5.6 nM | 232 nM |  | Cc1nc2cccc(-c3cc4c([nH]3)CCNC4=O)c2nc1NC1(C)CCOCC1 [Example 203, 2-(2-methyl-3-((4-methyltetrahydro-2H-pyran-4-yl)amino)quinoxalin-5-yl)-6,7-dihydro-1H-pyrrolo[3,2-c]pyridin-4(5H)-one] |  |  | 
4 | 2 nM | 5.3 nM | 933 nM |  | CC1(C)CNCCN1c1cnc2cccc(-c3cc4c([nH]3)CCNC4=O)c2n1 [Example 217, 2-(3-(2,2-dimethylpiperazin-1-yl)quinoxalin-5-yl)-6,7-dihydro-1H-pyrrolo[3,2-c]pyridin-4(5H)-one] |  |  | 
5 | 1.22 nM | 1.29 nM | 252 nM |  | Cc1nc2cccc(-c3cc4c(=O)[nH]cnc4[nH]3)c2nc1NC(C)(C)C [Example 261, 6-(3-(tert-butylamino)-2-methylquinoxalin-5-yl)-3H-pyrrolo[2,3-d]pyrimidin-4(7H)-one] |  |  | 
6 | 1.8 nM | 5 nM | 1220 nM |  | COc1nc2cccc(-c3cc4c([nH]3)CCNC4=O)c2nc1NC(C)(C)C [Example 276, 2-(3-(tert-butylamino)-2-methoxy-5-quinoxalinyl)-1,5,6,7-tetrahydro-4H-pyrrolo[3,2-c]pyridin-4-one] |  |  | 
7 | 0.4 nM | 0.6 nM | 167 nM |  | Cc1nc2cccc(-c3cc4c([nH]3)CCNC4=O)c2nc1NC1(C)CCCC1 [Example 67, 2-(2-methyl-3-((1-methylcyclopentyl)amino)-5-quinoxalinyl)-1,5,6,7-tetrahydro-4H-pyrrolo[3,2-c]pyridin-4-one] |  |  | 
8 | 4.9 nM | 4.5 nM | 1140 nM |  | Cc1nc2cccc(-c3cc4c([nH]3)CCNC4=O)c2nc1NC1CCCCC1O (racemic) [Example 205, 2-(3-((2-hydroxycyclohexyl)amino)-2-methylquinoxalin-5-yl)-6,7-dihydro-1H-pyrrolo[3,2-c]pyridin-4(5H)-one] |  |  | 
9 | 4.7 nM | 58 nM | 9870 nM |  | CC1(C)CN(c2cnc3cccc(-c4cc5c([nH]4)CCNC5=O)c3n2)CCN1 [Example 214, 2-(3-(3,3-dimethylpiperazin-1-yl)quinoxalin-5-yl)-6,7-dihydro-1H-pyrrolo[3,2-c]pyridin-4(5H)-one] |  |  | 
10 | 5.9 nM | 3.5 nM | 336 nM |  | Cc1nc2cccc(-c3cc4n(c3)CCNC4=O)c2nc1NC(C)(C)C [Example 174, 7-(3-(tert-butylamino)-2-methylquinoxalin-5-yl)-3,4-dihydropyrrolo[1,2-a]pyrazin-1(2H)-one] |  |  | 
11 | 3.1 nM | 4.3 nM | 750 nM |  | Cc1nc2cccc(-c3cc4c([nH]3)CCNC4=O)c2nc1SC(C)(C)C [Example 221, 2-(3-(tert-butylthio)-2-methylquinoxalin-5-yl)-6,7-dihydro-1H-pyrrolo[3,2-c]pyridin-4(5H)-one] |  |  | 
12 | 2.2 nM | 1.4 nM | 215 nM |  | Cc1nc2cccc(-c3cc4c([nH]3)CCNC4=O)c2nc1N[C@@H](C)C1CC1 [Example 270, 2-(3-(((1S)-1-cyclopropylethyl)amino)-2-methyl-5-quinoxalinyl)-1,5,6,7-tetrahydro-4H-pyrrolo[3,2-c]pyridin-4-one] |  |  | 
13 | 2.7 nM | 0.7 nM |  | 215 nM | COCC(C)(C)Nc1nc2c(-c3cc4c([nH]3)CCNC4=O)cccc2nc1C [Example 66, 2-(3-((2-methoxy-1,1-dimethylethyl)amino)-2-methyl-5-quinoxalinyl)-1,5,6,7-tetrahydro-4H-pyrrolo[3,2-c]pyridin-4-one] |  |  | 
14 | 4.3 nM | 6.3 nM | 2910 nM |  | Cc1nc2cccc(-c3cc4c([nH]3)CCNC4=O)c2nc1NCC(C)(C)N [Example 70, 2-(3-((2-amino-2-methylpropyl)amino)-2-methyl-5-quinoxalinyl)-1,5,6,7-tetrahydro-4H-pyrrolo[3,2-c]pyridin-4-one] |  |  | 
15 | 1.6 nM | 1.23 nM | 243 nM |  | Cc1nc2cccc(-c3cc4c(=O)[nH]cnc4[nH]3)c2nc1NC1CCC1 [Example 260, 6-(3-(cyclobutylamino)-2-methylquinoxalin-5-yl)-3H-pyrrolo[2,3-d]pyrimidin-4(7H)-one] |  |  | 
16 | 3.1 nM | 1.9 nM | 713 nM |  | Cc1nc2cccc(-c3cc4c([nH]3)CCNC4=O)c2nc1NC1CC(O)C1 (stereo not shown) [Example 72, 2-(3-((3-hydroxycyclobutyl)amino)-2-methyl-5-quinoxalinyl)-1,5,6,7-tetrahydro-4H-pyrrolo[3,2-c]pyridin-4-one] |  |  | 
17 | 0.1 nM | 0.1 nM | 86.3 nM |  | CCN(c1cnc2cccc(-c3cc4c([nH]3)CCNC4=O)c2n1)C(C)(C)C [Example 220, 2-(3-(tert-butyl(ethyl)amino)quinoxalin-5-yl)-6,7-dihydro-1H-pyrrolo[3,2-c]pyridin-4(5H)-one] |  |  | 
18 | 3.3 nM | 0.8 nM |  | 199 nM | 2′-(3-(cyclopropylamino)-6-fluoro-2-methylquinoxalin-5-yl)-1′H-spiro[cyclopropane-1,6′-pyrrolo[3,4-b]pyrrol]-4′(5′H)-one [Example 283] |  |  | 
19 | 1 nM | 0.4 nM | 169 nM |  | Cc1nc2cccc(-c3cc4c([nH]3)CCNC4=O)c2nc1NC1(CO)CC1 [Example 277, 2-(3-((1-(hydroxymethyl)cyclopropyl)amino)-2-methyl-5-quinoxalinyl)-1,5,6,7-tetrahydro-4H-pyrrolo[3,2-c]pyridin-4-one] |  |  | 
20 | 6.4 nM | 6.1 nM | 474 nM |  | Cc1nc2cccc(-c3cc4c([nH]3)CCNC4=O)c2nc1NC1CCOC1 (racemic) [Example 71, 2-(2-methyl-3-((±)-tetrahydro-3-furanylamino)-5-quinoxalinyl)-1,5,6,7-tetrahydro-4H-pyrrolo[3,2-c]pyridin-4-one] |  |  | 
21 | 0.2 nM | 0.3 nM | 60.1 nM |  | CC(C)(C)Nc1cnc2cccc(-c3cc4c([nH]3)CCNC4=O)c2n1 [Example 210, 2-(3-(tert-butylamino)quinoxalin-5-yl)-6,7-dihydro-1H-pyrrolo[3,2-c]pyridin-4(5H)-one] |  |  | 
22 | 6.7 nM | 2.8 nM | 533 nM |  | Cc1nc2cccc(-c3cc4c([nH]3)CCNC4=O)c2nc1NCC1(C)COC1 [Example 281, 2-(2-methyl-3-(((3-methyl-3-oxetanyl)methyl)amino)-5-quinoxalinyl)-1,5,6,7-tetrahydro-4H-pyrrolo[3,2-c]pyridin-4-one] |  |  | 
23 | 7.8 nM | 4.1 nM | 346 nM |  | CNc1nc2c(-c3cc4c([nH]3)CCNC4=O)cccc2nc1C [Example 219, 2-(2-methyl-3-(methylamino)quinoxalin-5-yl)-6,7-dihydro-1H-pyrrolo[3,2-c]pyridin-4(5H)-one] |  |  | 
24 | 0.3 nM | 0.3 nM | 41.3 nM |  | Cc1nc2cccc(-c3cc4c([nH]3)CCNC4=O)c2nc1NC1(C)CC1 [Example 202, 2-(2-methyl-3-((1-methylcyclopropyl)amino)quinoxalin-5-yl)-6,7-dihydro-1H-pyrrolo[3,2-c]pyridin-4(5H)-one] |  |  | 

Row | Molecule | IC50 (Pim-1; [2]) | IC50 (Pim-2) | IC50 [1, 4] | IC50 [1, 5] | IC50 (KMS-12-BM cell lines) | IC50 [1, 3] | IC50 (Pim-1)
25 | Cc1nc2ccc(F)c(-c3cc4c([nH]3)CCNC4=O)c2nc1NC(C)(C)C [Example 286, 2-(3-(tert-butylamino)-6-fluoro-2-methylquinoxalin-5-yl)-6,7-dihydro-1H-pyrrolo[3,2-c]pyridin-4(5H)-one] | 0.289 nM | 0.305 nM |  |  | 28.2 nM | 143 nM | 
26 | Cc1nc2cccc(-c3cc4c([nH]3)CCNC4=O)c2nc1NC1(C)CCCCC1 [Example 155, 2-(2-methyl-3-((1-methylcyclohexyl)amino)quinoxalin-5-yl)-6,7-dihydro-1H-pyrrolo[3,2-c]pyridin-4(5H)-one] |  | 1.5 nM | 292 nM |  |  |  | 0.7 nM
27 | Cc1nc2cccc(-c3cc4c([nH]3)CCNC4=O)c2nc1N(C)C(C)(C)C [Example 222, 2-(3-(tert-butyl(methyl)amino)-2-methylquinoxalin-5-yl)-6,7-dihydro-1H-pyrrolo[3,2-c]pyridin-4(5H)-one] | 3.5 nM | 2.1 nM |  |  |  | 397 nM | 
